Measured values published in US20130102499A1, “METHOD FOR DETERMINATION OF ACTIVITY OF MITOCHONDRIAL DNA POLYMERASE OF FALCIPARUM MALARIA, AND METHOD FOR SCREENING FOR ANTI-MALARIA COMPOUND” (OCHANOMIZU UNIVERSITY, priority 2010, published 2013).
Blank lines part the entries; values can stand above or below the compound they belong to.

What was measured:
[1] = test system: DNA polymerase γ-like enzyme; details: Non-patent Document 5; cited from earlier work
[2] = test system: PFF1225c (C1 fragment), mitochondrial DNA polymerase; experiment: DNA polymerase activity measurement of PFF1225c (C1 fragment), sensitivity to inhibitors; format: biochemical, Plasmodium falciparum; details: for inhibition action to the DNA polymerase activity: FIG. 12a, FIG. 13a
Experimental: When a ^3H amount taken in a DNA chain is measured with a liquid scintillation counter, the pigment of an iron ion causes quenching and an accurate measurement thus cannot be attained. Quenching is classified into three types such as chemical quenching, oxygen quenching, and coloration quenching, and calculation efficiency of a liquid scintillation counter decreases. The case of ^3H being a soft β ray particularly becomes a problem, and coloration quenching becomes a problem in the case of an iron ion. Thus, gallic acid that forms a complex with iron was used and gallic acid iron that is a purple complex was formed. […] The protocol in the case of adding an iron ion is shown below.
In order to prevent oxidation of iron, the reaction solution was exposed to a nitrogen gas for 30 minutes to be degassed.
The reaction solution obtained by adding 50 mM Tris-HCl (pH 7.5), 1 mM dTTP, 40 nM PolydA-dT12, and 10 mM FeCl2 and adjusted to be the total amount of 20 μl with degassed distilled water (DW). […] After the incubation, an iron ion was chelated by adding 10 μl of 100 mM EDTA to terminate the reaction. PicoGreen™ (Molecular Probes), which specifically binds to double-stranded DNA, was used in order to quantitatively determine an amount of DNA synthesized by the DNA polymerase.

[3] = test system: apicoplast DNA polymerase (POMUPfprex); details: reported; cited from earlier work
mouse DNA polymerase α = target: T1, mouse DNA polymerase α (Mus musculus, UniProt P33609); details: already reported; cited from earlier work
T1 sequence (P33609 1-1465): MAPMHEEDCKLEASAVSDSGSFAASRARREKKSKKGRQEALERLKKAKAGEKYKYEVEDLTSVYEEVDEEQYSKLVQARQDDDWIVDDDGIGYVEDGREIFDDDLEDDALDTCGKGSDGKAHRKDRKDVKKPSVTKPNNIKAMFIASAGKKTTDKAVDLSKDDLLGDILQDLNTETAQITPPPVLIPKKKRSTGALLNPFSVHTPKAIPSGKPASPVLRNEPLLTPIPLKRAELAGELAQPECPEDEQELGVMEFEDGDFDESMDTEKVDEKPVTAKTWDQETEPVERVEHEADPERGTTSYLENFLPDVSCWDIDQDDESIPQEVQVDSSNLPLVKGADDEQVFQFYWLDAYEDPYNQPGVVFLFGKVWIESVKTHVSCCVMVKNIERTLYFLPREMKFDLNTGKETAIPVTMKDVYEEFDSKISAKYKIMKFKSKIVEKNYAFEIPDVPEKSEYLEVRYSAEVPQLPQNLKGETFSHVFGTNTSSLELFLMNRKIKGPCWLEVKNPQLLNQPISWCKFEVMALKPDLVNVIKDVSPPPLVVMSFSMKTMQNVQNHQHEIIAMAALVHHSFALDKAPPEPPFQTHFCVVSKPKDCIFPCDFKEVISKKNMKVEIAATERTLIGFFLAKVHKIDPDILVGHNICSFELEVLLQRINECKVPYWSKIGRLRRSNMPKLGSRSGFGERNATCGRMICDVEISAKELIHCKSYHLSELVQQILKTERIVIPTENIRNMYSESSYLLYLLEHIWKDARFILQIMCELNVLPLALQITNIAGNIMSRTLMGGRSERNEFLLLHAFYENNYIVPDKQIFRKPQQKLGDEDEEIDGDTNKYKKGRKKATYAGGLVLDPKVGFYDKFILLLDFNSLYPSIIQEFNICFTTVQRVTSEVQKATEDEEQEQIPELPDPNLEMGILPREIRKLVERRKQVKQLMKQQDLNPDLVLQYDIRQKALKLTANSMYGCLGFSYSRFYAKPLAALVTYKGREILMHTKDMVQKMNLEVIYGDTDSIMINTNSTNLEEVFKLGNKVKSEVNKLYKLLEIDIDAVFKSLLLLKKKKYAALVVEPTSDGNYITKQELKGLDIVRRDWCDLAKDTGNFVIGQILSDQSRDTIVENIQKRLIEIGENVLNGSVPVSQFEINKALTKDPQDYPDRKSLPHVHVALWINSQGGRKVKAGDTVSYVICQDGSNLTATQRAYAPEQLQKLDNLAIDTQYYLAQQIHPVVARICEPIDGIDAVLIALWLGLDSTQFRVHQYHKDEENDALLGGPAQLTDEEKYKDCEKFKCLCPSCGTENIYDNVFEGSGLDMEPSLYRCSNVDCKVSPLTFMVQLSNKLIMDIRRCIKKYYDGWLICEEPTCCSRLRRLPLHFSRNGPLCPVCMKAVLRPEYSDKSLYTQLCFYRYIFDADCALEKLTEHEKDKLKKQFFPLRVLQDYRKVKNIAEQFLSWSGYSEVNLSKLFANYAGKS

[4] = target: T2, human mitochondrial DNA polymerase γ (Homo sapiens, UniProt P54098); experiment: DNA polymerase activity, human mitochondrial DNA polymerase γ; format: biochemical; details: FIG. 12c
T2 sequence (P54098 1-1239): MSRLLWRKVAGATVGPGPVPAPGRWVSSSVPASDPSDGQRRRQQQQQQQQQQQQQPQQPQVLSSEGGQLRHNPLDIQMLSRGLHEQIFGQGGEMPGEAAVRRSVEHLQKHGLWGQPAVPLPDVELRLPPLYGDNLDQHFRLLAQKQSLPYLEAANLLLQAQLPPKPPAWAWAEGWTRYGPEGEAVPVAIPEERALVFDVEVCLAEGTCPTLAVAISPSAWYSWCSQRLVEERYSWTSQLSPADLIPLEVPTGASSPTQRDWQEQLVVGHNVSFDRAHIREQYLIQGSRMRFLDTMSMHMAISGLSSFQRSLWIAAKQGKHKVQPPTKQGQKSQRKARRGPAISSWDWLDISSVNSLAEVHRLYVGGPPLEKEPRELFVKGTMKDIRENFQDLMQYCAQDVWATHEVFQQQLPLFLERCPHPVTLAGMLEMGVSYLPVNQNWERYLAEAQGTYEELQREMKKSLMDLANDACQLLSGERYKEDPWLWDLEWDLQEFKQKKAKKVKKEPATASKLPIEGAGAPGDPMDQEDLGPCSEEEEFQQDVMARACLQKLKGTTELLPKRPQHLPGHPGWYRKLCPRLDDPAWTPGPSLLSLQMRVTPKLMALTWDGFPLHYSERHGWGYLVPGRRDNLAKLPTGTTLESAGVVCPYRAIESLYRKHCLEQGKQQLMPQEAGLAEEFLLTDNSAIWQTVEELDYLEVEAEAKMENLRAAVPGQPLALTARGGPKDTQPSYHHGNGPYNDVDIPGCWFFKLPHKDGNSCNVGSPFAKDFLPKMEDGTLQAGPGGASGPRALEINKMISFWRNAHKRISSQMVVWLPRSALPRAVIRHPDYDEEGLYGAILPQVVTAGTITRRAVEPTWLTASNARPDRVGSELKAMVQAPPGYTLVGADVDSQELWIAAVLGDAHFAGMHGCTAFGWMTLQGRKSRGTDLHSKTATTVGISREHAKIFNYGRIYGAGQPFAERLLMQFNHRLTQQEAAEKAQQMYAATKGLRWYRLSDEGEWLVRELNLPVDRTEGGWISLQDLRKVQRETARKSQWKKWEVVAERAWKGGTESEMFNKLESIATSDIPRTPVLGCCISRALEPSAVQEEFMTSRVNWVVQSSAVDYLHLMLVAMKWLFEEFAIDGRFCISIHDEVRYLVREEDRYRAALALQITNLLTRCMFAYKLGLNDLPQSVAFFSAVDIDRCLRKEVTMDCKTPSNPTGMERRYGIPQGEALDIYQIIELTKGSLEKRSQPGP
Experimental: 0.1 μg of a C1 fragment was added per 10 μl. The mixed reaction solution was incubated at 37° C. for 30 minutes, then adsorbed to filter paper, dried, and washed with 5% Na2HPO4 4 times (for 10 minutes for each washing), thereafter washing twice with distilled water (DW) (for 5 minutes for each washing), and finally shaken with 100% ethanol for 5 minutes. The filter paper was then dried and the dried filter paper was contained in a vial container charged with 4 ml of a toluene cocktail, and an intake amount of ^3H was measured with a liquid scintillation counter.

DNA polymerase γ [5] = target: T3, DNA polymerase γ (Mus musculus, UniProt P54099); details: already reported; cited from earlier work
T3 sequence (P54099 1-1218): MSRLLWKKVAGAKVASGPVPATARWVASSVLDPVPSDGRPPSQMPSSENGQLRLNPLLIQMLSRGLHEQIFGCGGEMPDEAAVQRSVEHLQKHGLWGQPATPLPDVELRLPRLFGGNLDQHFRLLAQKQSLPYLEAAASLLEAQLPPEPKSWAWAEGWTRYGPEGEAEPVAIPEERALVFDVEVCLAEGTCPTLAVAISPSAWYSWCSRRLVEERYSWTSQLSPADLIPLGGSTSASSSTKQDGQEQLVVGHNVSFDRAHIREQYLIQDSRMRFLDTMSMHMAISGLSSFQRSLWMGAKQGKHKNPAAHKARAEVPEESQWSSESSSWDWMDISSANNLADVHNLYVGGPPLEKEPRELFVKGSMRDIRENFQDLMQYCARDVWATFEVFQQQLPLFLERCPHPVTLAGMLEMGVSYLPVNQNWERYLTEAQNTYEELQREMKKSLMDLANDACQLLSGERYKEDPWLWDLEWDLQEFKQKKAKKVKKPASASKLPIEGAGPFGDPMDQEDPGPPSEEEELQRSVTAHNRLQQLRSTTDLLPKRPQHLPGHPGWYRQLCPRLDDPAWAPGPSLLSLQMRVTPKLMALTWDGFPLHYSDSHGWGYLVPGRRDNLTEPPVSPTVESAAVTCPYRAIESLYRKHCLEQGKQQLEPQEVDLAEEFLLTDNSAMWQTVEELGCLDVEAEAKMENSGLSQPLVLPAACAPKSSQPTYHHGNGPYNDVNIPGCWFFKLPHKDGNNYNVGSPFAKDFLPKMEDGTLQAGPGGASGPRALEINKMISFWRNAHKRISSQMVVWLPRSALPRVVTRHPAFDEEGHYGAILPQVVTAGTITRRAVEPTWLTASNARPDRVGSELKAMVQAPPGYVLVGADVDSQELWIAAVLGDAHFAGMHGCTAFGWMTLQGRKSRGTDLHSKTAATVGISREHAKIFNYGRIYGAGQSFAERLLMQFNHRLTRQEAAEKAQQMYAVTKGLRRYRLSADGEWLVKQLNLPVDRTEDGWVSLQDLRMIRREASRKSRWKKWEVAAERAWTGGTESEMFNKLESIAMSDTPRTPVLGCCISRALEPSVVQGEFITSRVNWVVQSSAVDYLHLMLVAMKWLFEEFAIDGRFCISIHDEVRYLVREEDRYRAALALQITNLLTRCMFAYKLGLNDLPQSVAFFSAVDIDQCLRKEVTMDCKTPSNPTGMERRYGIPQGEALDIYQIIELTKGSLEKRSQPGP

PpPolA = details: FIG. 12b
Experimental: A reaction solution was obtained by adding 50 mM Tris-HCl, 0.5 mM dATP, dGTP, dCTP, 5 μM dTTP, activated DNA (0.5 μg/ml), 0.8 μM [^3H]dTTP (Moravek Co.: (MT-781) Thymidine 5′-triphosphate, tetrasodium salt, [methyl ^3H]), and an enzyme solution was further added thereto, a metallic ion, an inhibitor, etc. having respective concentrations (the total amount of 10 μl). 0.1 μg of a C1 fragment was added per 10 μl. The mixed reaction solution was incubated at 37° C. for 30 minutes, then adsorbed to filter paper, dried, and washed with 5% Na2HPO4 4 times (for 10 minutes for each washing), thereafter washing twice with distilled water (DW) (for 5 minutes for each washing), and finally shaken with 100% ethanol for 5 minutes. The filter paper was then dried and the dried filter paper was contained in a vial container charged with 4 ml of a toluene cocktail, and an intake amount of ^3H was measured with a liquid scintillation counter.

DNA polymerase γ [6] = target: T4, DNA polymerase γ (Homo sapiens, UniProt P54098); details: at a concentration from 50 to 100 mM; reported; cited from earlier work
T4 sequence (P54098 1-1239): T2 sequence (P54098 1-1239)

various DNA polymerases = details: reported; binds non-specifically; cited from earlier work

SMILES: CCN1C(=O)C=CC1=O [NEM, N-ethylmaleimide]
sensitivity or resistance of the enzyme to inhibitor [1]: sensitivity | DNA polymerase activity on addition of inhibitor ([2]; in the presence at a high concentration, FIG. 11c): the activity scarcely decreased

SMILES: Nc1ncnc2c1ncn2CCOCP(=O)(O)OP(=O)(O)OP(=O)(O)O [PMEApp]
sensitivity or resistance of the enzyme to inhibitor [1]: resistance

SMILES: C[C@@]1(CO)[C@H](O)CC[C@@]2(C)[C@H]1CC[C@H]1C[C@@H]3C[C@@]12CC[C@]3(O)CO [aphidicolin]
sensitivity or resistance of the enzyme to inhibitor [1]: resistance | DNA polymerase activity on addition of inhibitor ([2]; added at a concentration from 10 to 100 μM, FIG. 11b): the activity scarcely decreased

inhibition action to the DNA polymerase activity [2]: inhibited the activity | inhibition action to the DNA polymerase activity [4]: an inhibition effect was not shown | inhibition action to the DNA polymerase activity (PpPolA): an inhibition effect was not shown
SMILES: CCN(CC)CCCC(C)Nc1ccnc2cc(Cl)ccc12 (stereo not drawn) [chloroquine]
inhibition of DNA polymerase activity [3]: inhibitors | inhibition of DNA polymerase activity (mouse DNA polymerase α): does not inhibit | inhibition of DNA polymerase activity (DNA polymerase γ [5]): does not inhibit

SMILES: Cc1cn([C@H]2CC[C@@H](COP(=O)(O)OP(=O)(O)OP(=O)(O)O)O2)c(=O)[nH]c1=O [ddTTP]
inhibition of DNA polymerase activity (DNA polymerase γ [6]): mostly inhibited | sensitivity or resistance of the enzyme to inhibitor [1]: resistance | inhibition effect on DNA polymerase activity ([2]; along with increasing concentration, FIG. 11d): a weak inhibition effect was shown | remaining DNA polymerase activity ([2]; concentration increased to 400 mM, FIG. 11d): 50%

SMILES: Cc1ccc(C(=O)Nc2ccc(S(=O)(=O)O)c3cc(S(=O)(=O)O)cc(S(=O)(=O)O)c23)cc1NC(=O)c1cccc(NC(=O)Nc2cccc(C(=O)Nc3cc(C(=O)Nc4ccc(S(=O)(=O)O)c5cc(S(=O)(=O)O)cc(S(=O)(=O)O)c45)ccc3C)c2)c1 [suramin]
inhibition of DNA polymerase activity [3]: inhibitors | inhibition action to the DNA polymerase activity [2]: inhibited the activity | inhibition of DNA polymerase activity (various DNA polymerases): inhibits the activities
